The results in this text go back to patent US20040006002A1, “Methods and compositions for treating flaviviruses and pestiviruses using 4'-modified nucleoside” (priority 2001, published 2004).

pEC50: −log10 of the molar value.

The nature of data set [1]: Cytotoxicity assay (sulforhodamine B, 4 days). The data set is classed as cell-based. The settings on record: bovine; MDBK cells, 4 days incubation, concentration reducing cell number by 50%; preliminary results. On the procedure: (§1) The test compounds were dissolved in DMSO at an initial concentration of 200 μM and then were serially diluted in culture medium.
(§2) Cells are seeded at a rate of between 5×10^3 and 5×10^4/well into 96-well plates in growth medium overnight at 37° C. in a humidified CO2 (5%) atmosphere. New growth medium containing serial dilutions of the drugs is then added. After incubation for 4 days, cultures are fixed in 50% TCA and stained with sulforhodamineB. The optical density was read at 550 nm. The cytotoxic concentration was expressed as the concentration required to reduce the cell number by 50% (CC50).

In the next data set the test system is BVDV (strain NADL). Nature of the data set: Cell Protection Assay (CPA), BVDV-infected MDBK cells. The data set is classed as cell-based, Bovine Viral Diarrhea virus. As to conditions: MOI 0.02, MDBK cells, four days post-infection, 50% reduction of cytopathic effect. The protocol:
as §1
(§3) The assay is performed essentially as described by Baginski, S. G.; Pevear, D. C.; Seipel, M.; Sun, S. C. C.; Benetatos, C. A.; Chunduru, S. K.; Rice, C. M. and M. S. Collett “Mechanism of action of a pestivirus antiviral compound” PNAS USA 2000, 97(14), 7981-7986. MDBK cells (ATCC) are seeded onto 96-well culture plates (4,000 cells per well) 24 hours before use. After infection with BVDV (strain NADL, ATCC) at a multiplicity of infection (MOI) of 0.02 plaque forming units (PFU) per cell, serial dilutions of test compounds are added to both infected and uninfected cells in a final concentration of 0.5% DMSO in growth medium. Each dilution is tested in quadruplicate. Cell densities and virus inocula are adjusted to ensure continuous cell growth throughout the experiment and to achieve more than 90% virus-induced cell destruction in the untreated controls after four days post-infection. After four days, plates are fixed with 50% TCA and stained with sulforhodamine B. The optical density of the wells is read in a microplate reader at 550 nm. The 50% effective concentration (EC50) values are defined as the compound concentration that achieved 50% reduction of cytopathic effect of the virus.
In general terms: Damage to the host cells serves as the signal in cytopathic effect assays.

The nature of data set [2]: Cell Protection Assay (CPA), uninfected cells (cytotoxicity). The data set is classed as cell-based. The settings on record: bovine, uninfected MDBK cells, Table 2, Cell Protection Assay. On the procedure: as §2, §3
A further data set concerns MDBK. Kind of data set: Cytotoxicity assay (sulforhodamine B, 4 days). The class given is cell-based. The settings on record: MDBK cells, 4 days incubation, concentration reducing cell number by 50%; preliminary results. On the procedure:
as §1, §2

A further data set concerns MDBK cells. Nature of the data set: Cell Protection Assay (CPA), uninfected cells (cytotoxicity). The class given is cell-based. The settings on record: Table 2, Cell Protection Assay. On the procedure: as §2, §3
The mark [3] stands for this setting: Bovine viral diarrhea virus isolates and strains, 96 h.

In general, CC50 refers to the concentration giving 50% cytotoxicity. As usually defined, the pEC50 is the EC50 on a negative log10 scale, so that one unit is a factor of ten. Usually melting point stands for the temperature of the solid-liquid transition.

For `C[C@]1(CO)O[C@@H](n2ccc(=S)[nH]c2=O)[C@H](O)[C@@H]1O` [β-D-4'-CH3-ribo-4-thioU, 1-(4-C-methyl-β-D-ribofuranosyl)4-thio-uracil], the melting point is 65 to 70 °C (dec.). This molecule also came in with a 50% cytotoxic concentration (CC50) at 4 days in data set [1] above 250 µM. For the same molecule, in the data set on BVDV (strain NADL) (setting [3]), the pEC50 was below 3.60. Moreover, the CC50 at 4 days in data set [2] was above 250 µM.

As for `C[C@]1(CO)O[C@@H](n2cc(F)c(=O)[nH]c2=O)[C@H](O)[C@@H]1O` [β-D-4'-CH3-ribo-5-fluoroU], the CC50 in the data set with MDBK and with MDBK cells was above 167 µM throughout. The pEC50 in the data set on BVDV (strain NADL) is below 3.78.

With `C[C@]1(CO)O[C@@H](n2cnc3c(N)ncnc32)[C@H](O)[C@@H]1O` [β-D-4'-CH3-riboA, 9-(4-C-methyl-β-D-ribofuranosyl) adenine], the melting point was 96 to 97 °C (dec.). The same molecule showed a CC50 at 4 days in data set [1] above 250 µM. The molecule further had a negative logarithm of the EC50 (pEC50) in the data set on BVDV (strain NADL) (setting [3]) below 3.60. The cytotoxic concentration (CC50) at 4 days in data set [2] is above 250 µM.

Turning to `C[C@]1(CO)O[C@@H](n2ccc(N)nc2=O)[C@H](O)[C@@H]1O` [β-D-4'-CH3-riboC, 1-(4-C-methyl-β-D-ribofuranosyl)cytosine], the half-maximal cytotoxic concentration (CC50) at 4 days in data set [1] and in data set [2] was above 250 µM throughout. In addition, the pEC50 in the data set with BVDV (strain NADL) (setting [3]) was 5.05.

For the molecule `C[C@]1(CO)O[C@@H](n2cnc3c(=O)[nH]c(N)nc32)[C@H](O)[C@@H]1O` [β-D-4'-CH3-riboG, 9-(4-C-methyl-β-D-ribofuranosyl) guanine], the half-maximal cytotoxic concentration (CC50) at 4 days in data set [1] and in data set [2] was above 250 µM each time. This molecule also had a pEC50 in the data set with BVDV (strain NADL) (setting [3]) of 4.37.

For the molecule `Cc1cn([C@@H]2O[C@](C)(CO)[C@@H](O)[C@H]2O)c(=O)[nH]c1=O` [β-D-4'-CH3-riboT, 1-(4-C-methyl-β-D-ribofuranosyl)thymine], the melting point is 258 to 260 °C (dec.). In data set [1], this molecule returned a CC50 at 4 days above 250 µM. The same molecule gave a pEC50 with BVDV (strain NADL) (setting [3]) below 3.60. In data set [2], this molecule gave a CC50 at 4 days above 250 µM.
